Test results: patent publication US20240238380A1, “COMPOSITION FOR COMBINATION THERAPY COMPRISING GROWTH DIFFERENTIATION FACTOR-15 VARIANT AND GLUCAGON-LIKE PEPTIDE-1 RECEPTOR AGONIST” (YUHAN CORPORATION, priority 2021, published 2024)
Marks after values point to notes of the source that are not given here.

Tests used:
[1] = Anti-obesity and metabolic parameter effects alone and in combination with large dose of semaglutide in ob/ob mice (Example 6); type: in vivo; conditions: 1 nmol/kg s.c. Q3D
Excerpt: 5-week-old male ob/ob mice (Jackson Laboratory, USA) were purchased from Raon Bio (Animal Inc., Republic of Korea). The ob/ob mice were acclimatized with normal chow or normal chow diet (Teklad Certified Irradiated Global 18% Protein Rodent Diet, 2918C, Harlan Co., USA) for 5 weeks, and drug treatment was started at 10 weeks of age. On the day before drug treatment, the mice were grouped based on the body weight of individual mice and random blood glucose levels determined by sampling at the tail vein (n=6 per group). Thereafter, 1 nmol/kg of FM9-6+Fc_hole alone, 30 nmol/kg of semaglutide alone, and FM9-6+Fc_hole and semaglutide in combination (1+30 nmol/kg) were subcutaneously administered thereto a total of 9 times every 3 days (Q3D), and body weight, food intake, and non-fasting blood glucose were measured every day or every 3 days during the experimental period (24 days). Here, DPBS (Dulbecco's phosphate-buffered saline, Gibco, USA) was administered for vehicle treatment.

[2] = molecular target: T1, GFRAL/RET/SRE-luc-overexpressing HEK293 cell line (Homo sapiens, UniProt Q6UXV0); assay: Functional activity of long-acting GDF15 fusion protein (Bright-Glo luciferase assay); type: cell-based; conditions: relative to FM9-6+Fc_hole (Emax 100%)
T1 construct: expressed in transfected cells; host or cells: HEK293 (human embryonic kidney 293), overexpressing GFRAL, RET and an SRE-luciferase reporter
T1 sequence (Q6UXV0 19-394, species assumed): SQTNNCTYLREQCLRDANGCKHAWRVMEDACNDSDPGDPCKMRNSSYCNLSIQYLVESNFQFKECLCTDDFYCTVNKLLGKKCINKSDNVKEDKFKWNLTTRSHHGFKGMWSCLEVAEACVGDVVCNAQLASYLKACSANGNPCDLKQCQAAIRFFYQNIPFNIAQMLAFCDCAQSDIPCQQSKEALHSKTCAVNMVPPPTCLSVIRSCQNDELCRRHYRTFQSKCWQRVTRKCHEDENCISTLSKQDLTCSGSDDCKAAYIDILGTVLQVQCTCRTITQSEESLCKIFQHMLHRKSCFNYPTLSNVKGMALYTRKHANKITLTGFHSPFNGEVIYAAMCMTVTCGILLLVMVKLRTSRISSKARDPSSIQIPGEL
T1 sequence (P07949 29-1114 partner, species assumed): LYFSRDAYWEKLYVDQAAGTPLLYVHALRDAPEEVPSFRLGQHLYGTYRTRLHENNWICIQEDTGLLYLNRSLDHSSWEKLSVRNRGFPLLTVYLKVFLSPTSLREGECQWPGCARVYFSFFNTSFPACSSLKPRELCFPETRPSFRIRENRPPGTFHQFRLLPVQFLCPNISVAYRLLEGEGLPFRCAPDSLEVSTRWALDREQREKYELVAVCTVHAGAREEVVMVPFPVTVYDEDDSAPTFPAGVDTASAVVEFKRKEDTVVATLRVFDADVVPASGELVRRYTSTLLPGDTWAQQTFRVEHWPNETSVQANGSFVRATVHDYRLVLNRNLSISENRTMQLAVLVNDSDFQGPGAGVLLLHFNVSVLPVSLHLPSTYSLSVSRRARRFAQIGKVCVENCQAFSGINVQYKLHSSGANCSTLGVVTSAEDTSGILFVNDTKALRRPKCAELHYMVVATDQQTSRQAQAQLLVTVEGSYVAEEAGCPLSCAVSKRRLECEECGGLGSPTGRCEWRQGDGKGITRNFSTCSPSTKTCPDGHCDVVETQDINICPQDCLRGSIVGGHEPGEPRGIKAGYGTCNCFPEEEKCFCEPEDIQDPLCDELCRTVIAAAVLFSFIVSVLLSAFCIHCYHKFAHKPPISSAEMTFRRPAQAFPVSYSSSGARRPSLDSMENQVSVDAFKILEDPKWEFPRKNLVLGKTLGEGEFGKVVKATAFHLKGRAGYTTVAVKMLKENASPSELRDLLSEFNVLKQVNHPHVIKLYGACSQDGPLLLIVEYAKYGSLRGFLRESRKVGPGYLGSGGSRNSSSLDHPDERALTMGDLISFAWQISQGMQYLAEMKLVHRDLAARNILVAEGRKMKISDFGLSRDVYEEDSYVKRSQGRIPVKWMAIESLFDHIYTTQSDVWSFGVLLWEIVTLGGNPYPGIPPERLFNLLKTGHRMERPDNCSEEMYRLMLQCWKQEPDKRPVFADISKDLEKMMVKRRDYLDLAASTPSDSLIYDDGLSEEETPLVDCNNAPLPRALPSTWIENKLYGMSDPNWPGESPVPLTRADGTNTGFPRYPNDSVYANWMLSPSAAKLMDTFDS
Method: Two variants (FM9+Fc_hole, FM11+Fc_hole) were compared and evaluated for GDF15 activity depending on the linker type and length. The GDF15 activity was measured using a Bright-Glo™ luciferase assay kit (Promega) and a GFRAL/RET/SRE-luc-overexpressing HEK293 cell line (Human embryonic kidney 293).
Specifically, 1×10^5 GFRAL/RET/SRE-luc-overexpressing HEK293 cells were dispended in DMEM containing 10% FBS in each well of a 96-well-plate, followed by culture at 37° C. and 5% CO2 for 24 hours. After 24 hours, each medium of the 96-well plate was replaced with 50 μl of a serum-free medium, followed by culture at 37° C. and 5% CO2 for 4 hours.
In addition, the long-acting GDF15 fusion protein produced in Example 1 was prepared by 3-fold serial dilution from a concentration of 2000 nM using a serum-free medium. Thereafter, 50 μl of the long-acting GDF15 fusion protein dilution was added to each well containing 50 μl of the replaced serum-free medium and the GERAL/RET/SRE-luc cell line so that the actual concentration thereof was serially diluted 3-fold from 1000 nM, followed by reaction at 37° C. and 5% CO2 for 4 hours. After 4 hours, each well was treated with 100 μl of a Bright-Glo™ solution prepared by adding a Bright-Glo™ buffer to a Bright-Glo™ substrate, followed by reaction at room temperature for 1 minute.
Thereafter, the reaction value (relative light units, RLU) was measured using a microplate reader (Perkin Elmer, Wallac Victor X5) capable of measuring luminescence. The results thereof are shown in Table 2 below and in FIGS. 1 and 2. Here, the functional activity of the long-acting GDF15 fusion protein depending on the GDF15 sequence, linker type, and length was compared based on the in-vitro GDF15 activity of FM9-6+Fc_hole (Emax 100%).

[3] = Anti-obesity effect by repeated administration alone and in combination with semaglutide in ob/ob mice (Example 5); type: in vivo
Excerpt: The ob/ob mouse has a mutation in the leptin gene resulting in leptin deficiency, and are characterized by hyperglycemia, insulin resistance, overeating, and obesity. 5-week-old male ob/ob mice (Jackson Laboratory, USA) were purchased from Raon Bio (Animal Inc., Republic of Korea). The ob/ob mice were acclimatized with normal food (Teklad Certified Irradiated Global 18% Protein Rodent Diet, 2918C, Harlan Co., USA) for 4 weeks, and drug treatment was started at 9 weeks of age. On the day before drug treatment, the mice were grouped based on the body weight of individual mice and random blood glucose levels determined by sampling at the tail vein (n=6 per group). Thereafter, 1 and 10 nmol/kg of FM9-6+Fc_hole alone, 10 and 30 nmol/kg of semaglutide alone, and FM9-6+Fc_hole and semaglutide at doses of 1+10 and 10+10 nmol/kg in combination were subcutaneously administered thereto a total of 10 times every 3 days (Q3D), and body weight and food intake were measured every day or every 3 days during the experimental period (29 days). Here, DPBS (Dulbecco's phosphate-buffered saline, Gibco, USA) was administered for vehicle treatment.

[4] = Anti-obesity effect alone and in combination with semaglutide or tirzepatide in DIO mice (Example 7); type: in vivo; conditions: for Change in body weight (%) vs. day 0, Maximum efficacy: 4 weeks
Excerpt: Diet-induced obese (DIO) mice, obtained by feeding mice with high-fat diet, are characterized by obesity, hyperglycemia, and insulin resistance. Diet-induced obese mice (Taconic, USA) resulting from feeding C57BL/6N mice with high-fat food (60 kcal % fat, Research Diets, Cat #D12492, USA) for 8 weeks were purchased from Raon Bio (Animal Inc., Republic of Korea). The diet-induced obese mice were additionally fed with 60% high-fat food for 5 weeks after arrival, and then used in the present test. On the day before drug treatment, the mice were grouped based on the average body weight of individual mice (n=6 per group), after which 0.1 and 1 nmol/kg of FM9-6+Fc_hole alone, 10 nmol/kg of semaglutide (long-acting GLP-1 derivative, SEQ ID NO: 114) and 10 nmol/kg of tirzepatide (long-acting GLP-1/GIP derivative, SEQ ID NO: 117) alone as control drugs, FM9-6+Fc_hole and semaglutide at doses of 0.1+10 and 1+10 nmol/kg in combination, and FM9-6+Fc_hole and tirzepatide at doses of 1+10 nmol/kg in combination were subcutaneously administered thereto every 3 days (Q3D) for a total of 4 weeks. The semaglutide that was used in the test was Ozempic® (semaglutide) from Novo NorDisk, and the tirzepatide that was used was a material synthesized by MedChemExpress (HY-P1731B, USA). Here, DPBS (Dulbecco's phosphate-buffered saline, Gibco, USA) was administered for vehicle treatment, and, during the experimental period (26 days), body weight was measured every day and food intake was measured every 3 days.

Which “Change in body weight (%) vs. ob/ob control, Efficacy on Day 24” value [1] does the source give for “FM9-6 + Fc_hole: long-acting GDF15 fusion protein (dimer): GDF15 ΔN2, S64R, IgG1 Fc_knob/Fc_hole, linker GS(EAAAK)5; SEQ ID NOs: 103 and 47” here?
Its value is −23.37**** %.

And the “Mean of random blood glucose levels (mg/dL), Efficacy on Day 24” value [1]?
Its value is 116.2**** mg/dL.

What about the “Emax (%)” value [2] of the same substance?
The value was 100.0%.

What about the “Change in body weight (%) vs. ob/ob control, Maximum efficacy” value ([3]; 1 nmol/kg s.c. Q3D) of the same substance?
Its value is −21.49 (On Day 29)**** %.

What about the “Change in body weight (%) vs. ob/ob control, Efficacy on Day 29” value ([3]; 1 nmol/kg s.c. Q3D) of the same substance?
Its value is −21.49**** %.

What about the “Change in body weight (%) vs. ob/ob control, Maximum efficacy” value ([3]; 10 nmol/kg s.c. Q3D) of the same substance?
Its value is −24.87 (On Day 29)**** %.

What about the “Change in body weight (%) vs. ob/ob control, Efficacy on Day 29” value ([3]; 10 nmol/kg s.c. Q3D) of the same substance?
Its value is −24.87 **** %.

What about the “Change in body weight (%) vs. day 0, Maximum efficacy” value ([4]; 0.1 nmol/kg s.c. Q3D) of the same substance?
The value was −6.75 (On Day 25)** %.

And the “Change in body weight (%) vs. day 0, Efficacy on Day 26” value ([4]; 0.1 nmol/kg s.c. Q3D)?
Its value is −6.68** %.

What about the “Change in body weight (%) vs. day 0, Maximum efficacy” value ([4]; 1 nmol/kg s.c. Q3D) of the same substance?
The value was −16.33 (On Day 23)**** %.

What about the “Change in body weight (%) vs. day 0, Efficacy on Day 26” value ([4]; 1 nmol/kg s.c. Q3D) of the same substance?
Its value is −16.29**** %.
